Common to all, as to test: NCI-60 cell line screen, 48 h
The test system of test [1] is OVCAR-4.
The subject of test [2] is U-251.
Test [3] has as its system A498.
Test [4] relates to SF-539.
Test [5] concerns NCI-H23.
Test [6] deals with UACC-257.
The test system of test [7] is SK-MEL-28.
In test [8] the test system is RPMI-8226.
In test [9] the test system is RXF 393.
Test [10] has as its system EKVX.
The subject of test [11] is HT-29.
Test [12] deals with SK-OV-3.
Test [13] deals with SW-620.
Test [14] deals with SNB-19.
Test [15] has as its system ACHN.
The subject of test [16] is K562.
Test [17] has as its system IGROV-1.
Test [18] relates to OVCAR-8.
Test [19] has as its system HCT-116.

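48-hour exposure; five concentrations; linearly interpolated endpoints. Here, GI50 denotes the concentration required for 50% inhibition of growth.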 Active and inactive are the calls of the source. No stated cut-off is given here; in the data, active = GI50 up to about 1.1 µM and inactive = higher.

As to `CCc1ccccc1NC(=O)C1=C(C)NC(C)=C(C(=O)Nc2ccccc2CC)C1c1ccc2c(c1)OCO2`, the GI50 in test [1] was 23.2 µM (inactive); in [2], 26.9 µM (inactive); in test [3], 25.1 µM (inactive); in test [4], 16.8 µM (inactive); in test [5] it was 31.5 µM (inactive); in test [6], 30.9 µM (inactive). Besides, the GI50 was 32.6 µM (inactive) in test [7]; 14.5 µM (inactive) in test [8]; 20 µM (inactive) in test [9]; 31.3 µM (inactive) in [10]; 31.9 µM (inactive) in [11]; 30.2 µM (inactive) in test [12]. Besides, the GI50 in [13] is 28.9 µM (inactive); in test [14], 49.3 µM (inactive); in [15] it was 22.8 µM (inactive); in test [16], 26.5 µM (inactive); in [17] it was 29.4 µM (inactive); in [18] it was 33.7 µM (inactive).

For the molecule `N#CC(C(=N/O)/C(=N/O)C(C#N)c1ccc(Cl)cc1)c1ccc(Cl)cc1` (stereo not given), the GI50 in test [1] is > 100 µM (inactive); in [2], > 100 µM (inactive); in test [3], > 100 µM (inactive); in [4], > 100 µM (inactive); in test [5] it was 92.5 µM (inactive); in test [6], > 100 µM (inactive). For the same molecule, the GI50 is > 100 µM (inactive) in [7]; 40.5 µM (inactive) in [8]; 46.7 µM (inactive) in test [9]; > 100 µM (inactive) in [10]; > 100 µM (inactive) in test [11]; > 100 µM (inactive) in test [12]. The GI50 in test [19] is > 100 µM (inactive); in test [13] it was 76.7 µM (inactive); in [14], > 100 µM (inactive); in test [15], > 100 µM (inactive); in test [17] it was > 100 µM (inactive); in [18], 40 µM (inactive).

For `CC(=O)OCC(OC(C)=O)C(OC(C)=O)C(OC(C)=O)C(=O)CNn1c(-c2ccccc2Cl)nc2ccc(Br)cc2c1=O` (stereo not given), the GI50 in test [1] was 87.1 µM (inactive); in [2], 87.9 µM (inactive); in [3] it was 55.7 µM (inactive); in test [4], > 100 µM (inactive); in test [5], > 100 µM (inactive); in test [6], > 100 µM (inactive). The GI50 in test [7] was > 100 µM (inactive); in test [8], 27 µM (inactive); in [9] it was 67 µM (inactive); in test [10], > 100 µM (inactive); in test [11], 96.4 µM (inactive); in test [12], > 100 µM (inactive). Besides, the GI50 was > 100 µM (inactive) in test [19]; > 100 µM (inactive) in test [13]; 81.1 µM (inactive) in test [14]; > 100 µM (inactive) in test [15]; 44 µM (inactive) in test [16]; 76.9 µM (inactive) in test [18].

`Nc1ccccc1S(=O)(=O)N(CC(=O)O)c1ccccc1`: the GI50 in [1], in test [2], in test [3], in [4], in test [5] and in [6] was > 100 µM (inactive) in each case. For the same molecule, the GI50 in test [7], in test [8], in test [9], in [10], in [11] and in test [12] was > 100 µM (inactive) each time. Besides, the GI50 in test [13], in test [14], in test [15], in [16], in test [17] and in test [18] was > 100 µM (inactive) in each case.

Take `O=C(NC1CCC[C@H]1OC(=O)c1ccccc1)c1ccccc1` (stereo not given in full): the GI50 in test [1] is 30.8 µM (inactive); in [2] it was > 100 µM (inactive); in test [3], 33.1 µM (inactive); in [4], > 100 µM (inactive); in [5], 31 µM (inactive); in test [6], > 100 µM (inactive). The GI50 is > 100 µM (inactive) in test [7]; > 100 µM (inactive) in test [9]; > 100 µM (inactive) in test [10]; 39.7 µM (inactive) in [11]; 43.2 µM (inactive) in [12]; 81.3 µM (inactive) in [19]. For the same molecule, the GI50 in test [13] is > 100 µM (inactive); in test [14] it was > 100 µM (inactive); in test [15], > 10 µM (inactive); in [16], 38 µM (inactive); in [17], > 100 µM (inactive); in test [18], > 100 µM (inactive).

`Oc1cccnc1/C=N/OCc1ccccc1`: the GI50 in test [2] is > 100 µM (inactive); in test [3], > 100 µM (inactive); in test [4], > 100 µM (inactive); in test [6], > 100 µM (inactive); in test [8], > 100 µM (inactive); in [9], 23.6 µM (inactive). The GI50 in test [10], in test [11], in test [12], in test [19], in test [13] and in test [14] was > 100 µM (inactive) in each case. Moreover, the GI50 in test [15], in [16], in test [17] and in test [18] was > 100 µM (inactive) throughout.

`Nc1c(Cl)ncnc1NCCCCCCCCCCCCNc1ncnc(Cl)c1N`: the GI50 in test [1] is 1.99 µM (inactive); in test [2], 0.0857 µM (active); in [3], 6.05 µM (inactive); in [4], 3.37 µM (inactive); in [5], < 0.01 µM (active); in test [6] it was 0.0671 µM (active). Also, the GI50 in [7] is 2.14 µM (inactive); in test [8] it was 1.5 µM (inactive); in [9], 1.54 µM (inactive); in test [10], 3.44 µM (inactive); in test [11] it was 7.03 µM (inactive); in test [12], 4.18 µM (inactive). In addition, the GI50 in test [19] is 0.0469 µM (active); in test [13], 2.69 µM (inactive); in test [14], 4.57 µM (inactive); in [16], < 0.01 µM (active); in test [17] it was 1.55 µM (inactive); in [18], 1.9 µM (inactive).

Turning to `COC1=CC(=O)C2C(C1=O)[C@@H]1c3ccccc3OC[C@H]21` (stereo not given in full), the GI50 in [1], in test [2], in [3], in test [4], in test [5] and in test [7] was > 100 µM (inactive) throughout. Besides, the GI50 in test [8], in test [9], in test [10], in test [11], in test [12] and in test [19] was > 100 µM (inactive) each time. The GI50 in test [13], in [14], in test [15], in [16] and in test [18] was > 100 µM (inactive) throughout.

As to `COc1ccc2c(c1)[n+]([O-])c(-c1ccc([N+](=O)[O-])cc1)c(N)[n+]2[O-]`, the GI50 in test [1] is > 100 µM (inactive); in test [2], 68.1 µM (inactive); in test [3], > 100 µM (inactive); in test [4], > 100 µM (inactive); in [5] it was 88.5 µM (inactive); in test [6], 81.3 µM (inactive). The GI50 in test [7] was 67 µM (inactive); in [9], > 100 µM (inactive); in test [10] it was > 100 µM (inactive); in [11], 65.5 µM (inactive); in [12], > 100 µM (inactive); in test [19] it was 26.6 µM (inactive). For the same molecule, the GI50 is > 100 µM (inactive) in [13]; > 100 µM (inactive) in test [14]; > 100 µM (inactive) in test [15]; 32.6 µM (inactive) in test [16]; 75.2 µM (inactive) in test [17]; > 100 µM (inactive) in test [18].

With `Cn1cnc([N+](=O)[O-])c1Sc1nc2cccnc2s1`, the GI50 in [1] is 12.1 µM (inactive); in test [2], 24 µM (inactive); in test [3], 40.9 µM (inactive); in [4], 19.8 µM (inactive); in test [5], > 10 µM (inactive); in [6] it was 13.3 µM (inactive). In addition, the GI50 in [7] is 16.5 µM (inactive); in [8], 19.2 µM (inactive); in test [9], 17.8 µM (inactive); in test [10], 17.5 µM (inactive); in test [11], 21.3 µM (inactive); in test [12], 51.3 µM (inactive). In addition, the GI50 is 16 µM (inactive) in [19]; 12 µM (inactive) in [13]; 78.9 µM (inactive) in test [14]; 24.5 µM (inactive) in [15]; 17.5 µM (inactive) in test [17]; 16.1 µM (inactive) in test [18].

Turning to `N#CC(C#N)=Cc1cccc(Oc2ccccc2)c1`, the GI50 in test [2] was 13.6 µM (inactive); in test [3] it was > 63.2 µM (inactive); in test [4] it was 18.4 µM (inactive); in test [5], 14.9 µM (inactive); in test [6], 16.8 µM (inactive); in [7] it was 13.8 µM (inactive). The GI50 in test [8] was 20.9 µM (inactive); in test [9] it was 17.7 µM (inactive); in test [10], 54.2 µM (inactive); in [11] it was 22.7 µM (inactive); in test [12], 71.6 µM (inactive); in test [19], 17.1 µM (inactive). For the same molecule, the GI50 in [13] is 25.6 µM (inactive); in [14] it was 22 µM (inactive); in test [15] it was 18.2 µM (inactive); in test [16], 23.7 µM (inactive); in [17], 26.8 µM (inactive); in test [18] it was 19.1 µM (inactive).

The record behind these values is ChEMBL document CHEMBL1201862, “PubChem BioAssay data set” (2004).
